We go through three molecules from US9566277B2, “Methods of using phthalazinone ketone derivatives” (Jiangsu Hansoh Pharmaceutical Co., Ltd., priority 2010, dated 2017).

SMILES strings stand for the structures.

This series is described as follows: Pharmacokinetics assay in SD rats (LC/MS/MS plasma concentration). The format is in vivo. The conditions noted are these: 15 mg/kg; for Apparent Distribution Volume Vz/F / Clearance CL/F: intravenous injection; for Vd/F / CL/F: both sexes, rat, plasma, oral gavage; for Vd/F: read-out: Apparent Distribution Volume Vz/F; for CL/F: read-out: Clearance CL/F (converted). As to the method:
24 Healthy adult SD rats, male and female in half, were purchased from SINO-BRITSH SIPPR/BK LAB. ANIMAL LTD., CO, Certificate No.: SCXK (Shanghai) 2003-0002.
The intragastrical administration group: the right amount of tested compounds were weighed and dissolved in 0.5 mL of DMSO, diluted with physiological saline to 10 mL and prepared to 1.5 mg/mL.
The intravenous injection administration group: the right amount of tested compounds were weighed and added into […].
After an overnight fast, 24 healthy adult SD rats, male and female in half, were administered intragastrically at a dose of 15.0 mg/kg and an administration volume of 10 mL/kg.
The intragastrical administration group: blood samples (0.2 mL) were taken from orbital sinus at pre administration and at 0.25 hour, 0.5 hour, 1.0 hour, 1.5 hours, 2.0 hours, 3.0 hours, 4.0 hours, 6.0 hours, 7.0 hours, 9.0 hours, 12.0 hours and 24.0 hours post administration, stored in heparinized tubes and centrifuged for 20 minutes at 3,500 rpm to separate plasma. The plasma samples were stored at −20° C. The rats were fed at 2 hours after administration.
The intravenous injection administration group: blood samples (0.2 mL) were taken from orbital sinus at pre administration and at 2 minutes, 15 minutes, 0.5 hour, 1.0 hour, 2.0 hours, 3.0 hours, 4.0 hours, 6.0 hours, 8.0 hours, 12.0 hours and 24.0 hours post administration, stored in heparinized tubes and centrifuged for 20 minutes at 3,500 rpm to separate plasma. The plasma samples were stored at −20° C.
20 μL of rat blank plasmas taken at various time points after administration were added with 50 μL of internal standard solution and […] of methanol and mixed for 3 minutes by a vortexer. The mixture was centrifuged for 10 minutes at 13,500 rpm. 20 μL of the supernatant was analyzed by LC-MS/MS. The main pharmacokinetic parameters were calculated by software DAS 2.0.

Take `CCNC(=O)c1nc(C(F)(F)F)n2c1CN(C(=O)c1cc(Cc3n[nH]c(=O)c4ccccc34)ccc1F)CC2` [Example 7, N-ethyl-7-[2-fluoro-5-[(4-oxo-3H-phthalazin-1-yl)methyl]benzoyl]-3-(trifluoromethyl)-6,8-dihydro-5H-imidazo[1,5-a]pyrazine-1-carboxamide]: the “Apparent Distribution Volume Vz/F” value is 0.64 ± 0.19 L/kg, the “Clearance CL/F” value worked out at 8.67 ± 4.83 mL/min/kg, the Vd/F was determined as 103 ± 134 L/kg and the CL/F was 257 mL/min/kg.

With `CNC(=O)c1nc(C(F)(F)F)n2c1CN(C(=O)c1cc(Cc3n[nH]c(=O)c4ccccc34)ccc1F)CC2` [Example 13, 7-[2-fluoro-5-[(4-oxo-3H-phthalazin-1-yl)methyl]benzoyl]-N-methyl-3-(trifluoromethyl)-6,8-dihydro-5H-imidazo[1,5-a]pyrazine-1-carboxamide], the “Apparent Distribution Volume Vz/F” value stood at 4.70 ± 2.17 L/kg, the “Clearance CL/F” value came to 12 ± 7.5 mL/min/kg, the Vd/F turned out to be 49.9 ± 52.9 L/kg and the CL/F is 74.5 mL/min/kg.

With `O=C(c1cc(Cc2n[nH]c(=O)c3ccccc23)ccc1F)N1CCn2nc(C(F)(F)F)nc2C1` [Example 19, 4-[[4-fluoro-3-[2-(trifluoromethyl)-6,8-dihydro-5H-[1,2,4]triazolo[1,5-a]pyrazine-7-carbonyl]phenyl]methyl]-2H-phthalazin-1-one], the Vd/F came to 7.97 ± 5.38 L/kg and the CL/F was 57.5 mL/min/kg.
